Molecules are shown by their SMILES.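 Five compound concentrations were applied to cells in 96-well plates for 48 hours; endpoints were derived by simple linear interpolation of the resulting dose-response curve. Abbreviation: GI50, concentration required for 50% inhibition of growth.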 Calls of active or inactive are those of the source. No stated cut-off is given here; in the data, active = GI50 up to about 1.1 µM and inactive = higher.

Experimental findings from ChEMBL document CHEMBL1201862, “PubChem BioAssay data set” (2004) are described below.

Among the test systems are TK-10; OVCAR-5; RPMI-8226; Hs-578T; SW-620; SNB-19; A549; HOP-62; SK-MEL-5; IGROV-1; NCI-H460; SK-OV-3; CCRF-CEM; CAKI-1; NCI-H522; HCT-116; SNB-75; ACHN; Malme-3M; PC-3.
What all share (test): inhibition of tumour cell growth, NCI panel, 48 h

With `O=C(O)C1(C(=O)O)CCN(S(=O)(=O)c2ccccc2)CC1`, the GI50 with TK-10, in the assay with OVCAR-5, in the assay with RPMI-8226, in the assay with Hs-578T, in the assay with SW-620 and in the assay with SNB-19 was > 100 µM (inactive) in each case. For the same molecule, the GI50 with A549, with HOP-62, in the assay on SK-MEL-5, with IGROV-1, in the assay on NCI-H460 and in the assay on SK-OV-3 was > 100 µM (inactive) throughout. Besides, the GI50 with CCRF-CEM, in the assay on CAKI-1, with NCI-H522, in the assay on HCT-116, in the assay with SNB-75 and with ACHN was > 100 µM (inactive) in each case. The GI50 in the assay on Malme-3M and in the assay with PC-3 was > 100 µM (inactive) throughout.

As to `Cc1cccc2c1c(=O)c1c(O)cc3c(c1n2C)C=CC(C)(C)O3`, the GI50 is 64.9 µM (inactive) with TK-10; > 100 µM (inactive) in the assay with OVCAR-5; > 100 µM (inactive) in the assay on RPMI-8226; > 100 µM (inactive) in the assay with Hs-578T; > 100 µM (inactive) in the assay with SW-620; > 100 µM (inactive) with SNB-19. Moreover, the GI50 in the assay on A549 was > 100 µM (inactive); with HOP-62, > 100 µM (inactive); in the assay on SK-MEL-5, 75 µM (inactive); in the assay with IGROV-1, 62.7 µM (inactive); in the assay with NCI-H460 it was > 100 µM (inactive); in the assay on SK-OV-3, > 100 µM (inactive). Also, the GI50 with CCRF-CEM, in the assay on CAKI-1, in the assay with NCI-H522, in the assay on HCT-116, in the assay with SNB-75 and with ACHN was > 100 µM (inactive) throughout. Also, the GI50 in the assay on Malme-3M and with PC-3 was > 100 µM (inactive) in each case.

As for `O=C(Cl)C1=C(c2ccccc2)C1c1ccccc1` (stereo not given), the GI50 in the assay on TK-10, in the assay on OVCAR-5, in the assay on RPMI-8226, in the assay with Hs-578T, in the assay with SW-620 and in the assay on SNB-19 was > 100 µM (inactive) throughout. The GI50 in the assay on A549, with HOP-62, in the assay with SK-MEL-5, in the assay on IGROV-1, with NCI-H460 and with SK-OV-3 was > 100 µM (inactive) in each case. In addition, the GI50 in the assay on CCRF-CEM, in the assay with CAKI-1, in the assay on NCI-H522, in the assay on HCT-116, in the assay on SNB-75 and in the assay with ACHN was > 100 µM (inactive) in each case. Further, the GI50 in the assay with Malme-3M and with PC-3 was > 100 µM (inactive) in each case.

`CC(C)NC(=O)OCc1c(COC(=O)NC(C)C)c(-c2ccc[n+](COC(=O)C(C)C)c2)n2c1CCC2`: the GI50 is > 91.4 µM (inactive) in the assay on TK-10; > 100 µM (inactive) in the assay on OVCAR-5; 55.2 µM (inactive) in the assay on RPMI-8226; > 100 µM (inactive) with Hs-578T; 55.3 µM (inactive) in the assay on SW-620; > 100 µM (inactive) with SNB-19. Moreover, the GI50 with A549 was > 91.4 µM (inactive); in the assay on HOP-62, > 63.5 µM (inactive); with SK-MEL-5, > 94.4 µM (inactive); in the assay with IGROV-1, > 67.6 µM (inactive); in the assay with NCI-H460, 21.6 µM (inactive); with SK-OV-3, > 100 µM (inactive). Besides, the GI50 was 17.2 µM (inactive) with CCRF-CEM; 17.3 µM (inactive) in the assay with CAKI-1; 34.5 µM (inactive) in the assay on NCI-H522; 54.7 µM (inactive) in the assay on HCT-116; 52.1 µM (inactive) in the assay with SNB-75; 29.1 µM (inactive) with ACHN. Besides, the GI50 with Malme-3M is > 63.5 µM (inactive); in the assay with PC-3, 59.3 µM (inactive).

For `COc1ccc([N+](=O)[O-])c2c(NCC(O)CO)ccnc12` (stereo not given), the GI50 in the assay on TK-10 was 67.5 µM (inactive); with OVCAR-5, > 100 µM (inactive); in the assay on RPMI-8226 it was 62.7 µM (inactive); in the assay on Hs-578T, 22.5 µM (inactive); with SW-620 it was 42.1 µM (inactive); in the assay with SNB-19, 93.8 µM (inactive). Besides, the GI50 in the assay with A549 is 35 µM (inactive); with HOP-62 it was 38.6 µM (inactive); in the assay with SK-MEL-5, 23 µM (inactive); with IGROV-1, 27.3 µM (inactive); in the assay on NCI-H460, 16.9 µM (inactive); in the assay with SK-OV-3 it was > 100 µM (inactive). The GI50 in the assay on CCRF-CEM was 87.1 µM (inactive); with CAKI-1 it was 52.6 µM (inactive); in the assay with NCI-H522, 15.5 µM (inactive); in the assay on HCT-116 it was 28.9 µM (inactive); with SNB-75 it was 47.8 µM (inactive); in the assay with ACHN it was 43.8 µM (inactive). Further, the GI50 in the assay with Malme-3M was 20.3 µM (inactive); in the assay with PC-3, 49.8 µM (inactive).

Regarding `OC1(c2ccccc2)CCN(Cc2c[nH]c3ccccc23)CC1`, the GI50 in the assay with TK-10 was > 100 µM (inactive); in the assay on OVCAR-5, > 100 µM (inactive); in the assay with RPMI-8226, 39.5 µM (inactive); in the assay with Hs-578T, > 100 µM (inactive); in the assay with SW-620, > 100 µM (inactive); with SNB-19, > 100 µM (inactive). The GI50 with A549 is > 100 µM (inactive); in the assay with HOP-62, > 100 µM (inactive); in the assay with SK-MEL-5, 36.3 µM (inactive); in the assay on IGROV-1, > 100 µM (inactive); in the assay on NCI-H460, 49.1 µM (inactive); with SK-OV-3, > 100 µM (inactive). For the same molecule, the GI50 in the assay on CCRF-CEM was > 100 µM (inactive); with CAKI-1, > 100 µM (inactive); in the assay with NCI-H522 it was > 100 µM (inactive); with HCT-116 it was 40.5 µM (inactive); with SNB-75, > 100 µM (inactive); in the assay with ACHN it was > 100 µM (inactive). Further, the GI50 is 23.2 µM (inactive) in the assay on Malme-3M and > 100 µM (inactive) in the assay with PC-3.

`CC(=O)C1=C(C)N2C(=NC3=C(CCc4ccccc43)C2c2ccc(Cl)cc2)S1` (stereo not given): the GI50 in the assay on TK-10 is > 100 µM (inactive); in the assay with OVCAR-5, > 100 µM (inactive); with RPMI-8226, 2.12 µM (inactive); in the assay on Hs-578T, > 64 µM (inactive); in the assay with SW-620 it was > 33.3 µM (inactive); in the assay with SNB-19, > 100 µM (inactive). Besides, the GI50 is 53.8 µM (inactive) with A549; > 100 µM (inactive) in the assay with HOP-62; 26.1 µM (inactive) with SK-MEL-5; 12.3 µM (inactive) with IGROV-1; 16.1 µM (inactive) with NCI-H460; > 100 µM (inactive) in the assay on SK-OV-3. Also, the GI50 in the assay with CCRF-CEM is 8.41 µM (inactive); in the assay on CAKI-1, > 100 µM (inactive); in the assay on NCI-H522 it was 6.53 µM (inactive); in the assay with HCT-116 it was 5.85 µM (inactive); in the assay on SNB-75, > 32.5 µM (inactive); in the assay on ACHN, > 100 µM (inactive). For the same molecule, the GI50 in the assay with Malme-3M was 48.5 µM (inactive); in the assay on PC-3, 10.2 µM (inactive).

For the molecule `N#Cc1nc(C#N)c(N)[nH]1`, the GI50 with TK-10, in the assay with OVCAR-5, in the assay on RPMI-8226, with Hs-578T, with SW-620 and with SNB-19 was > 100 µM (inactive) throughout. For the same molecule, the GI50 in the assay on A549, with HOP-62, in the assay on SK-MEL-5, in the assay with IGROV-1, with NCI-H460 and in the assay with SK-OV-3 was > 100 µM (inactive) each time. For the same molecule, the GI50 with CCRF-CEM, in the assay with CAKI-1, in the assay with NCI-H522, in the assay on HCT-116, in the assay on SNB-75 and in the assay on ACHN was > 100 µM (inactive) each time. Further, the GI50 in the assay with Malme-3M and in the assay with PC-3 was > 100 µM (inactive) each time.

In the case of `CN(C)CCn1c(=O)c2ccc(NCCNCCO)c3c(=O)c4cc(O)ccc4n(c1=O)c23`, the GI50 is 4.63 µM (inactive) in the assay with TK-10; 1.79 µM (inactive) in the assay on OVCAR-5; 1.18 µM (inactive) in the assay with RPMI-8226; 0.667 µM (active) in the assay with Hs-578T; 0.532 µM (active) with SW-620; 1.04 µM (active) in the assay on SNB-19. Further, the GI50 in the assay on A549 is 0.607 µM (active); with HOP-62 it was 0.483 µM (active); in the assay on SK-MEL-5, 1.49 µM (inactive); in the assay with IGROV-1, 1.05 µM (active); in the assay on NCI-H460, 0.655 µM (active); with SK-OV-3, 5.55 µM (inactive). Also, the GI50 with CCRF-CEM is 0.258 µM (active); in the assay on CAKI-1, 0.938 µM (active); with NCI-H522, 0.281 µM (active); with HCT-116, 0.664 µM (active); in the assay on SNB-75 it was 1.2 µM (inactive); in the assay with ACHN it was 0.571 µM (active). Moreover, the GI50 with Malme-3M is 2.42 µM (inactive); with PC-3 it was 1.69 µM (inactive).

For the molecule `COc1cccc2c1cc([N+](=O)[O-])c1c(C(=O)O)cc3c(c12)OCO3` [ARISTOLOCHIC ACID], the GI50 in the assay on TK-10 was 46.9 µM (inactive); with OVCAR-5, 25.4 µM (inactive); in the assay on RPMI-8226, 24.7 µM (inactive); with Hs-578T it was 52.8 µM (inactive); in the assay on SW-620, 32 µM (inactive); in the assay with SNB-19, 37.5 µM (inactive). In addition, the GI50 with A549 is 45.9 µM (inactive); in the assay with HOP-62, 23.7 µM (inactive); with SK-MEL-5, 44 µM (inactive); in the assay on IGROV-1 it was 29.4 µM (inactive); in the assay on NCI-H460, 27.7 µM (inactive); in the assay on SK-OV-3, 49.5 µM (inactive). The GI50 is 20 µM (inactive) in the assay with CCRF-CEM; 27.2 µM (inactive) in the assay with CAKI-1; 28.1 µM (inactive) in the assay on NCI-H522; 29.9 µM (inactive) in the assay on HCT-116; 30.9 µM (inactive) in the assay with SNB-75; 41.6 µM (inactive) in the assay on ACHN. Further, the GI50 in the assay on Malme-3M is 46.8 µM (inactive); with PC-3, 46.5 µM (inactive).
